Values joined by “and” are separate entries in the source; they are usually repeats but may differ in a detail not shown here. Equal values may be shown once.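 Growth conditions: 96-well plates. Treatment: test compound, 48 hours, 5 concentrations. Analysis: linear interpolation between bracketing concentrations; unreached endpoints set to highest concentration. GI50: concentration for 50% inhibition of growth. TGI: total growth inhibition.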
What was measured:
Experiment in all cases: inhibition of tumour cell growth, NCI panel, 48 h
KM12 colon = tested on: KM12 colon
SNB-19 CNS = tested on: SNB-19 CNS
MCF7 breast = tested on: MCF7 breast
SF-295 CNS = tested on: SF-295 CNS
SNB-75 CNS = tested on: SNB-75 CNS
LOX IMVI melanoma = tested on: LOX IMVI melanoma
TK-10 renal = tested on: TK-10 renal
MDA-MB-435 = tested on: MDA-MB-435
SF-539 CNS = tested on: SF-539 CNS
NCI-H226 lung = tested on: NCI-H226 lung
UACC-257 melanoma = tested on: UACC-257 melanoma
HCC-2998 colon = tested on: HCC-2998 colon
NCI-H23 lung = tested on: NCI-H23 lung
MOLT-4 leukemia = tested on: MOLT-4 leukemia

| Structure (SMILES) | TGI (KM12 colon) [µM] | TGI (SNB-19 CNS) | TGI (MCF7 breast) [µM] | TGI (SF-295 CNS) [µM] | TGI (SNB-75 CNS) [µM] | TGI (LOX IMVI melanoma) [µM] | TGI (TK-10 renal) | TGI (MDA-MB-435) [µM] | TGI (SF-539 CNS) [µM] | TGI (NCI-H226 lung) [µM] | TGI (UACC-257 melanoma) [µM] | TGI (HCC-2998 colon) [µM] | TGI (NCI-H23 lung) [µM] | TGI (MOLT-4 leukemia) [µM] | GI50 (SNB-19 CNS) | GI50 (SF-295 CNS) | GI50 (TK-10 renal) | GI50 (SF-539 CNS) | GI50 (NCI-H226 lung) |
| --- | --- | --- | --- | --- | --- | --- | --- | --- | --- | --- | --- | --- | --- | --- | --- | --- | --- | --- | --- |
| O=C1C=CC=C/C1=C1\N=C(c2ccccc2OCC(=O)c2ccc(Br)cc2)SS1 | > 100 | > 100 µM | > 100 | > 100 | 44.5 | > 100 | > 100 µM | > 100 | > 100 | > 100 | > 100 | > 100 | > 100 | – | – | – | – | – | – |
| O=C1C(Cl)C(c2cccc(Cl)c2)N1c1ccc(-n2c(=S)[nH]c3ccccc3c2=O)cc1 (stereo unspecified) | > 100 | 16.3 µM | 37.8 | 41.8 | – | 42.5 | 80.1 µM | 36.6 | 54.6 | 73.8 | 98.6 | 37.8 | 49.7 | 37.6 | – | – | – | – | – |
| Cc1ccc(C)c(COCCOCn2ccc(N)nc2=O)c1 | > 100 | > 100 µM | > 100 | > 100 | > 100 | > 100 | > 100 µM | > 100 | > 100 | > 100 | > 100 | > 100 | > 100 | > 100 | – | – | – | – | – |
| COc1cc2c(cc1OC)CCc1cc(OC)c(OC)cc1CC2 | > 100 | > 100 µM | > 100 | > 100 | > 100 | > 100 | > 100 µM | > 100 | > 100 | > 100 | > 100 | > 100 | > 100 | > 100 | – | – | – | – | – |
| Cc1ccc(/C=C2\CCC/C(=C\c3ccc(O)c(CN4CCCCC4)c3)C2=O)cc1 | 8.33 | 36.5 µM | 23.1 | 26 | 22.6 | 10.3 | 37.9 µM | 25.5 | 26.6 | 23.3 | 25.3 | 15.3 | 18.3 | 9.03 | – | – | – | – | – |
| O=C1CCCC2(c3ccccc3)Nc3ccccc3N12 (stereo unspecified) | > 100 | > 100 µM | > 100 | > 100 | > 100 | > 100 | > 100 µM | > 100 | > 100 | > 100 | > 100 | > 100 | > 100 | > 100 | – | – | – | – | – |
| COC(=O)C1=C(C(=O)OC)c2cc(OC)ccc2C(C(=S)N(C)C)S1 (stereo unspecified) | > 100 | > 100 µM | > 100 | > 100 | > 100 | > 100 | > 100 µM | > 100 | – | > 100 | > 100 | > 100 | > 100 | > 100 | – | – | – | – | – |
| C=C(CC[C@@H](C)[C@H]1CC[C@@]2(C)C3=C(CC[C@]12C)[C@@]1(C)CC[C@H](O)[C@@H](C)C1CC3)C(C)C (stereo partly specified) | 2.76 | 4.45 µM | 2.69 | 2.27 | 2.49 | 2 | 2.56 µM | 2.82 | 2.71 | 5.01 | 2.7 | 2.7 | 2.51 | 2.49 | – | – | – | – | – |
| CC12CCC([C@H](C(O)C3CCCCC3)C1=O)C2(C)C (stereo partly specified) | > 100 | > 100 µM | > 100 | > 100 | > 100 | > 100 | > 100 µM | > 100 | > 100 | > 100 | > 100 | > 100 | > 100 | > 100 | – | – | – | – | – |
| NC(CCC(=O)O)C(=O)N1CCN(c2nc(N3CCCC3)c3nc(Cl)c(NCc4ccccc4)nc3n2)CC1 (stereo unspecified) | 40.3 | 34.4 µM | 25.6 | 26.7 | 25.3 | 32.3 | 31 µM | 26.2 | 28.5 | 32.9 | 28.5 | 24.9 | 32.3 | 24.7 | – | – | – | – | – |
| Cc1ccc(NC(=O)c2cccc(OP(=O)(O)Nc3ccc(C)cc3)c2)cc1 | > 100 | > 100 µM | > 100 | > 100 | > 100 | > 100 | > 100 µM | > 100 | > 100 | > 100 | > 100 | > 100 | > 100 | > 100 | – | – | – | – | – |
| CC1=CC(=O)N(n2c(Cc3ccccc3)n[nH]c2=O)C1=O | > 100 | > 100 µM | > 100 | > 100 | – | > 100 | > 100 µM | > 100 | > 100 | > 100 | > 100 | > 100 | > 100 | > 100 | – | – | – | – | – |
| c1csc(-c2cc(-c3cccs3)c(-c3ccsc3)s2)c1 | > 100 | > 100 µM | > 100 | > 100 | > 100 | > 100 | > 100 µM | > 100 | > 100 | > 100 | > 100 | > 100 | > 100 | > 100 | – | – | – | – | – |
| Cc1ccccc1N=Nc1ccc(N/N=C2/CCCNC2=O)c(C)c1 | > 100 | > 100 µM | > 100 | > 100 | – | > 100 | > 100 µM | > 100 | – | > 100 | > 100 | > 100 | > 100 | > 100 | – | – | – | – | – |
| Cc1ccc(N=Nc2c(C)c(C#N)c(=S)n(C3OC(CO)C(O)C(O)C3O)c2C)cc1 (stereo unspecified) | > 100 | > 100 µM | > 100 | > 100 | 73.2 | 45 | > 100 µM | 81.2 | > 100 | – | > 100 | 58.5 | > 100 | 48.6 | – | – | – | – | – |
| COC(=O)C1C(=O)C=CN([C@H](C)c2ccccc2)[C@@H]1Cc1ccc(OC)c(OCc2ccccc2)c1I (stereo partly specified) | 52 | 86.4 µM | 49.3 | 35.5 | – | 27.8 | 60.4 µM | 47.8 | 36.4 | 32.7 | 39.3 | 32.5 | 40.3 | > 100 | – | – | – | – | – |
| CCn1c2ccccc2n2c(=O)c3c(c(C#N)c12)CCCC3 | > 100 | > 100 µM | > 100 | > 100 | – | > 100 | > 100 µM | > 100 | > 100 | > 100 | > 100 | > 100 | > 100 | > 100 | – | – | – | – | – |
| CC(C)Oc1ccc2c(c1)OCC1Cc3ccccc3OC21 (stereo unspecified) | > 100 | – | > 100 | > 100 | – | > 100 | > 100 µM | > 100 | > 100 | > 100 | > 100 | > 100 | > 100 | > 100 | – | – | – | – | – |
| COc1ccc(C2=Nn3c(nnc(Cc4ccc(Cl)cc4)c3=O)SC2)cc1 | > 100 | > 100 µM | > 100 | > 100 | – | > 100 | > 100 µM | 33.4 | > 100 | > 100 | > 100 | > 100 | > 100 | > 100 | – | – | – | – | – |
| COc1cc(OC)cc(-c2nc3cc(F)ccc3s2)c1 | > 100 | 49.2 µM | > 100 | 23.5 | – | > 100 | 33.2 µM | > 100 | 31.3 | 37.8 | > 100 | 0.0449 | 28.4 | – | – | – | – | – | – |
| CCc1c(C)c(C#N)c(=S)n(C2OC(COC(C)=O)C(OC(C)=O)C(OC(C)=O)C2OC(C)=O)c1C (stereo unspecified) | > 100 | > 100 µM and 93 µM | > 100 | > 100 | – | > 100 | > 100 µM and 69.4 µM | > 100 | > 100 | > 100 | > 100 | > 100 | > 100 | > 100 | > 100 µM and 21.5 µM | > 100 µM and 23 µM | 92.8 µM and 26.3 µM | > 100 µM and 31.4 µM | > 100 µM and 38.2 µM |
| COc1cc(/C=C2\N=C(c3ccccc3)N(c3nc4c(OC)ccc(OC)c4s3)C2=O)ccc1O | > 100 | > 100 µM | 33.2 | > 100 | 93.2 | 53.2 | > 100 µM | 50.7 | > 100 | – | > 100 | > 100 | > 100 | 39.5 | – | – | – | – | – |
| CC(=O)N[C@@H](Cc1ccc(O)cn1)C(=O)NCc1cccc(Cl)c1 | > 100 | > 100 µM | > 100 | > 100 | – | > 100 | > 100 µM | > 100 | > 100 | > 100 | > 100 | > 100 | > 100 | > 100 | – | – | – | – | – |
| CNC(=O)N1CN(c2ccccc2)C2(CCN(CCCC3(c4ccc(F)cc4)OCCO3)CC2)C1=O | > 100 | > 100 µM | > 100 | > 100 | > 100 | > 100 | > 100 µM | > 100 | > 100 | > 100 | – | > 100 | > 100 | > 100 | – | – | – | – | – |
| CCOP(=O)(CN1CCNCCNCC1)OCC | > 100 | > 100 µM | > 100 | > 100 | > 100 | > 100 | > 100 µM | > 100 | > 100 | > 100 | > 100 | > 100 | – | > 100 | – | – | – | – | – |

Source: PubChem BioAssay (NCI)
